For data set [1] the following is noted: comparison given in brackets; cited from earlier work.
Data set [2] deals with adult subjects with relapsing MS. As to the kind of experiment: Phase III OPTIMUM study, safety and treatment discontinuation.
Experimental: A prospective, multicenter, randomized, double-blind, active controlled, parallel-group, phase III, superiority study (Phase III OPTIMUM study) was conducted.
Subjects had active disease evidenced by one or more MS attacks with onset within the period of 12 to 1 months prior to baseline EDSS assessment, or by two or more MS attacks with onset within the 24 to 1 months prior to baseline EDSS assessment, or with one or more gadolinium-enhancing (Gd+) lesion(s) of the brain on an MRI performed within 6 months prior to baseline EDSS assessment. Enrolled subjects were ambulatory with an EDSS score of up to 5.5 inclusive. The subjects were treatment-naïve (i.e., no MS disease-modifying therapy received at any time in the past) or previously treated with interferon (IFN) β-1a, IFN β-1b, glatiramer acetate, dimethyl fumarate, or natalizumab.
The treatment period consisted of an up-titration period (from Day 1 to 14) and a maintenance period (Day 15 until EOT).
To reduce the first-dose effect of ponesimod, an up-titration scheme was implemented from Day 1 to Day 14: • Days 1 and 2; 2 mg. • Days 3 and 4; 3 mg. • Days 5 and 6; 4 mg. • Day 7; 5 mg. • Day 8; 6 mg. • Day 9; 7 mg. • Day 10; 8 mg. • Day 11; 9 mg. • Days 12, 13, and 14; 10 mg. • Day 15 until EOT; 20 mg.
The Safety Set (SAF) included all randomized subjects who received at least one dose of study treatment. Subjects were analyzed based on actual treatment taken, not randomized treatment.
Another data set concerns primary mouse OPCs. As to the kind of experiment: agarose drop migration assay. In kind it is cell-based. Conditions: 3000 nM; after 5 days; normalized to 0.1% DMSO. How it is done: The effects of ponesimod, a selective S1P1 receptor agonist, and A971432, a selective S1P5 receptor agonist, on oligodendrocyte precursor cell (OPC) migration and differentiation were evaluated. Nine concentrations were tested (logarithmic dilutions ranging from 0.3 nM to 3000 nM, n=6 per concentration). Fingolimod phosphate (P-FTY720, 3000 nM, n=6) was included as a positive control, 0.1% DMSO was included (min.one/plate) as a negative control. Primary mouse OPCs were harvested on postnatal day 0 or 1 and mixed glia cultures were maintained for 14 days. Primary OPCs were then purified using the shake-off method, and used for either a migration assay, or a differentiation assay, as detailed below. To harvest primary mouse OPCs, cortices are isolated from mouse pups on postnatal day 0 or 1 and placed in ice-cold Dulbecco's Modified Eagle Medium (DMEM) (Sigma Aldrich, Overijse, BE). The cortices are homogenized and centrifuged for 5 minutes at 300 G. The supernatant is removed, and a papain solution is added for 30 minutes (125 uL DMEM solution per brain containing 20 units/ml papain and 40 μg/ml DNase, at 37 degrees). Digestion is inactivated by adding 9 ml cold DMEM. The solution is then centrifuged for 5 minutes at […]. The supernatant is carefully removed, and the pellet is resuspended in 2-5 ml culture medium (DMEM with 10% fetal calf serum (Biowest, Nuaillé, FR) and 1% pen/strep (Sigma Aldrich, Overijse, BE)). […] Cell suspension is divided over PLL (Sigma Aldrich, Overijse, BE)-coated flasks (2 brains per flask) and DMEM is added to a final volume of 10 ml. DMEM is replaced on day 4, 7, and 11. On day 7 and 11, insulin (Sigma Aldrich, Overijse, BE) is added to the medium (5μg/ml). On day 14, OPCs are separated from astrocytes by the shake-off method: flasks are placed on a shaker for 45 minutes at 75 rpm (37 degrees). […] The extent of cell migration is then measured after 5 days using Incucyte imaging analysis and fluorescent endpoint staining. For each well, the 15-20 cells that migrated the furthest away from the agarose drop are measured and averaged. […]

Where [3] appears, read: Safety Set, ponesimod 20 mg, teriflunomide 14 mg.
Setting [4] is: ponesimod 20 mg, teriflunomide 14 mg.

For `CCCCCCCCc1ccc(CCC(N)(CO)CO)cc1` [fingolimod], the “ECG HR effect: nadir” value in data set [1] was roughly 6 h.
As for `CCc1cc(/C(C)=N/OCc2ccc(C3CCCCC3)c(C(F)(F)F)c2)ccc1CN1CC(C(=O)O)C1` [siponimod], the “ECG HR effect: nadir” value in data set [1] was 3 to 4 h.
Take `C/C(O)=C(\C#N)C(=O)Nc1ccc(C(F)(F)F)cc1` [teriflunomide]: the “subjects with asymptomatic post-dose HR≤40 bpm” value in data set [2] (Day 1, all with pre-treatment HR<55 bpm) is “none”. Moreover, in data set [2] (setting [3]), the “AEs leading to premature discontinuation of study drug, SOC Eye disorders” value turned out to be 0 n; the “AEs leading to premature discontinuation of study drug, SOC Respiratory, thoracic and mediastinal disorders” value is 0 n; the “AEs leading to premature discontinuation of study drug, SOC Vascular disorders” value came out at 0 n; the “Subject with at least one AE leading to study drug discontinuation” value amounted to 6.0%. In data set [2] (setting [3]), the “Subject with at least one Serious AE” value is recorded as 8.1%, the “Subject with at least one treatment-emergent AE” value is 88.2%, the “Treatment-emergent AESI: Hepatobiliary disorders/Liver enzyme abnormality” value came out at 14.5% and the “Treatment-emergent AESI: Hypertension” value is reported as 9.0%. For the same compound, the “Treatment-emergent AESI: Pulmonary events” value in data set [2] (setting [3]) worked out at 2.7%. Further, the “mean heart rate reduction compared to pre-dose” value in data set [2] (at 2-hours post dose, Day 1) is −1.7 bpm. In data set [2] (on Day 1, Safety Set), the “AESI heart rate and rhythm: Atrioventricular block first degree” value is recorded as 0 n; the “AESI heart rate and rhythm: Bradycardia” value worked out at 0 n; the “AESI heart rate and rhythm: Bundle branch block left” value was determined as 0 n; the “AESI heart rate and rhythm: Bundle branch block right” value stood at 0 n. Also, in data set [2] (on Day 1, Safety Set), the “AESI heart rate and rhythm: Defect conduction intraventricular” value amounted to 0 n; the “AESI heart rate and rhythm: Sinus arrhythmia” value came to 0 n; the “AESI heart rate and rhythm: Sinus bradycardia” value worked out at 0 n. Besides, the “AESI effect on heart rate and rhythm (including hypotension): Subjects with at least one AE” value in data set [2] (on Day 1, Safety Set, ponesimod arm (2 mg on Day 1), teriflunomide 14 mg) came to 0.4%. Besides, in data set [2] (setting [4]), the “TEAE ALT increased” value was 9.4%, the TEAE headache is given as 12.7%, the TEAE nasopharyngitis came to 16.8% and the “TEAE upper respiratory tract infection” value came out at 10.4%. In data set [2] (setting [4]), the “proportion of subjects who experienced ALT increase>3×ULN” value is given as 8.3%, the “proportion of subjects who experienced ALT increase>8×ULN” value was determined as 2.1% and the “subjects discontinued due to AEs or tolerability related reasons” value is 2.5%.
For fingolimod phosphate, the migration distance result in the data set on primary mouse OPCs is reported as “significantly decreased migration distance”.

These data come from patent publication US20240261267A1, “METHODS FOR TREATING MULTIPLE SCLEROSIS” (Vanda Pharmaceuticals Inc., priority 2021, published 2024).
